In patent US7524503B2, “Human cytomegalovirus (HCMV) cytotoxic T cell epitopes, polyepitopes compositions comprising same and diagnostic and prophylactic and therapeutic uses therefor” (priority 2001, dated 2009):

Columns and labels:
[1] = test system: PBMC from healthy HCMV seropositive donors; assay: IFN-γ ELISPOT assay; format: cell-based, human; conditions: peptide 10 μg/ml
Summary of the method: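 PBMC from healthy HCMV-seropositive donors (2.5×10^5 cells/well) were stimulated 18 h at 37° C with individual synthetic HCMV peptides (10 μg/ml) on anti-IFN-γ-coated nitrocellulose. IFN-γ spots were developed with biotinylated antibody and streptavidin-alkaline phosphatase and counted automatically. Counts were averaged over 3 wells, and no-peptide wells were subtracted.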

CD4+ T cells = assay: CD4+/CD8+ analysis of 20-mer peptides (intracellular IFN-γ staining or depletion ELISPOT); format: cell-based, human
Method: (§1) To determine whether a particular 20-mer peptide contained either a CD4^+- or CD8^+-restricted epitope, or both, CD4^+/CD8^+ cell depletion ELISPOT assays were performed on PBMC from healthy virus carriers. For any one experiment, three populations of cells were used: a) CD8^+-depleted PBMC, b) CD4^+-depleted PBMC, and c) non-depleted PBMC. These populations of cells were tested concurrently with the same peptides in a conventional ELISPOT assay as described herein above. DYNABEADS M-450 (Dynal, Oslo, Norway) that bound specifically to CD4^+- or CD8^+ cells were used to perform the depletion essentially according to manufacturers instructions. Beads were washed twice in cold PBS supplemented with 2% FCS using magnetic isolation. The requisite number of cells was resuspended in cold PBS supplemented with 2% FCS, added to the beads and then incubated at 4° C., in the dark, for 30 mins (CD8^+ beads) or 60 mins (CD4^+ beads). Populations were depleted of CD4^+ or CD8^+ cells using magnetic separation. After depletion, the non-attached cells were removed and washed once in growth medium, counted and used in conventional ELISPOT assay. Depleted cells were used at 1.7×10^5 cells per well and the non-depleted population was used at the standard 2.5×10^5 cells per well. After the depletion step, each respective cell population was assessed for the purity of CD4^+ and CD8^+ T cells by three-colour flow cytometry. Samples of depleted cell populations were stained with anti-CD3 antibody directly conjugated to fluorescein isothiocyanate (FITC), anti-CD4 antibody conjugated with phycoerythrin (PE) fluorochrome, and anti-CD8 antibody conjugated with Tricolor fluorochrome (described below). The percent of CD3^+/CD4^+ cells present within the CD8^+-depleted population and the percent of CD3^+/CD8^+ cells present within the CD4^+-depleted populations were assessed on FACSCalibur cytometer (Becton Dickinson). The purity of each population was greater than 90% and the results from the ELISPOT assays are expressed as the percentage of CD4+ or CD8^+ cells within the depleted populations that responded toward each peptide by producing IFN-γ.
(§2) PBMCs were incubated at 37° C. in RPMI+10% FCS with and without 10 μg/ml peptides for 6 hours. Golgiplug™ (Pharmingen, San Diego, Calif., USA) was added to the samples according to manufacturer's instructions during the second hour of incubation and cells activated with 25 ng/ml phorbol 12-myristidate 13-acetate (PMA; Sigma-Aldrich Co, St. Louis Mo.) and 1 μg/ml iomomycin (Sigma) acted as a positive control. Following the incubation, 1×10^6 cells/sample were washed and resuspended in staining buffer consisting of PBS with GolgiPlug™, 3% FCS and sodium azide. Cells were then stained with FITC conjugated anti-CD3-FITC (UCHT1, Immunotech, Marseille, France), and either Tricolor (TRI) conjugated anti-CD4 (S3.5, Caltag, Burlingame, Calif.) or anti-CD8 (3B5, Caltag) for 30 minutes, 4° C. in the dark. The cells were fixed for 20 min at 4° C. with Cytofix/Cytoperm™ (BD Biosciences) and resuspended in Perm/Wash™ permeabilization buffer (BD Biosciences) according to manufacturers protocol. Fixed cells were stained with phycoerythrin (PE) conjugated anti-human IFN-γ (B27, Pharmingen) for 30 min at 4° C. in the dark. As a negative control, cells were stained with appropriate isotype matched control antibodies. Cells were washed twice in permeabilization buffer and resuspended in staining buffer before analysis by three-colour flow cytometry on a FACSCalibur cytometer (BD Biosciences). All data analysis was carried out using FlowJo software (Tree Star, Inc. San Carlos, CA).
(§3) When using 20-mer peptides to map epitopes by ELISPOT, it is possible that some responses may be MHC class-II restricted, and not necessarily restricted through HLA class I alleles. It was evident throughout this study that some epitopes identified using ELISPOT could not be confirmed using cytotoxicity analysis. […]

CD8+ T cells = assay: as above; format: cell-based, human
Method: as §1, §2, §3

HLA A2 = biological target: T1, HLA A2 (Homo sapiens, UniProt P04439, D140Y/D185E/D98H/E176V/E277Q/G131W/G231S/I119V/I121R/I166T/I218V/L300P/L318F/N151K/N90K/P208A/P217A/Q86G/Q94H/R138H/R169H/T345S); format: cell-based; conditions: HLA A2 on T2 cells; relative increase in HLA expression vs no peptide at 26° C.
T1 construct: endogenous in cells; host or cells: T2 cells

Sequence: AHELVCSMENTRATKMQVIG
- ELISPOT Responses (SFC/10^6 PBMC) ([1]; donor alpha): 169 SFC/10^6 PBMC
- ELISPOT Responses (SFC/10^6 PBMC) ([1]; donor seven): 231 SFC/10^6 PBMC
- Responding cells (% CD4) (CD4+ T cells; donor seven): 0.04%
- Responding cells (% CD8) (CD8+ T cells; donor seven): 0.01%

Sequence: QPFMRPHERNGFTVLCPKNM
- ELISPOT Responses (SFC/10^6 PBMC) ([1]; donor delta): SE(783) SFC/10^6 PBMC
- Responding cells (% CD4) (CD4+ T cells; donor two): 0.05%
- Responding cells (% CD8) (CD8+ T cells; donor two): 0%

Sequence: DQYVKVYLESFCEDVPSGKL
- ELISPOT Responses (SFC/10^6 PBMC) ([1]; donor delta): SE(265) SFC/10^6 PBMC
- Responding cells (% CD4) (CD4+ T cells; donor delta): 0%
- Responding cells (% CD8) (CD8+ T cells; donor delta): 0.23%

Sequence: VKSEVDAVRCRLGTMCNLAL
- ELISPOT Responses (SFC/10^6 PBMC) ([1]; donor delta): 253 SFC/10^6 PBMC
- ELISPOT Responses (SFC/10^6 PBMC) ([1]; donor seven): 320 SFC/10^6 PBMC
- Responding cells (% CD4) (CD4+ T cells; donor delta): 0%
- Responding cells (% CD8) (CD8+ T cells; donor delta): 0.06%

Sequence: LLVLFIVYV (human cytomegalovirus US2 CTL epitope peptide)
- MSE (MHC stabilization efficiency) (HLA A2): − (− = 0-50%)
- ELISPOT Responses (SFC/10^6 PBMC) ([1]; donor ten): WS(92) SFC/10^6 PBMC

Sequence: FRNTNRSLEYKNLPFTIPSM
- ELISPOT Responses (SFC/10^6 PBMC) ([1]; donor sixteen): TC(187) SFC/10^6 PBMC
- Responding cells (% CD4) (CD4+ T cells; donor sixteen): 0%
- Responding cells (% CD8) (CD8+ T cells; donor sixteen): 0.25%

Sequence: RLLQTGIHV [reference compound]
- MSE (MHC stabilization efficiency) (HLA A2): ++ (++ = 100-199%)
- ELISPOT Responses (SFC/10^6 PBMC) ([1]; donor thirteen): BS(57) SFC/10^6 PBMC

Sequence: VTTERKTPRVTGGGAMAGAS
- ELISPOT Responses (SFC/10^6 PBMC) ([1]; donor eight): 285 SFC/10^6 PBMC
- ELISPOT Responses (SFC/10^6 PBMC) ([1]; donor epsilon): 322 SFC/10^6 PBMC
- ELISPOT Responses (SFC/10^6 PBMC) ([1]; donor two): JD(319) SFC/10^6 PBMC
- Responding cells (% CD4) (CD4+ T cells; donor eight): 0.17%
- Responding cells (% CD8) (CD8+ T cells; donor eight): 0.24%

Sequence: ALVNAVNKL (human cytomegalovirus pp150 CTL epitope peptide)
- MSE (MHC stabilization efficiency) (HLA A2): ++ (++ = 100-199%)
- ELISPOT Responses (SFC/10^6 PBMC) ([1]; donor ten): WS(60) SFC/10^6 PBMC

Sequence: CLPLMQKFPKQVMVRIFSTN (human cytomegalovirus IE2 CTL epitope peptide)
- ELISPOT Responses (SFC/10^6 PBMC) ([1]; donor sixteen): TC(256) SFC/10^6 PBMC
- Responding cells (% CD4) (CD4+ T cells; donor sixteen): 0%
- Responding cells (% CD8) (CD8+ T cells; donor sixteen): 0.15%

Sequence: HQVLDEAIKACKTMQVNNKG
- ELISPOT Responses (SFC/10^6 PBMC) ([1]; donor sixteen): TC(234) SFC/10^6 PBMC
- Responding cells (% CD4) (CD4+ T cells; donor sixteen): 0%
- Responding cells (% CD8) (CD8+ T cells; donor sixteen): 0.18%

Sequence: CLQNALDIL (human cytomegalovirus IE1 CTL epitope peptide)
- MSE (MHC stabilization efficiency) (HLA A2): ++ (++ = 100-199%)
- ELISPOT Responses (SFC/10^6 PBMC) ([1]; donor delta): SE(490) SFC/10^6 PBMC
